Like-named read-outs stand apart in the source and are kept apart here.

In this assay the target is Human factor D (Homo sapiens (Human), UniProt P00746). Description: Human Factor D Assay. It is filed as biochemical.
The mark [1] stands for this setting: human factor D 80 nM, substrate Z-L-Lys-SBz1 and DTNB 100 μM each, pH 7.5, read-out: IC50.

Sequence of Human factor D (P00746 26-253): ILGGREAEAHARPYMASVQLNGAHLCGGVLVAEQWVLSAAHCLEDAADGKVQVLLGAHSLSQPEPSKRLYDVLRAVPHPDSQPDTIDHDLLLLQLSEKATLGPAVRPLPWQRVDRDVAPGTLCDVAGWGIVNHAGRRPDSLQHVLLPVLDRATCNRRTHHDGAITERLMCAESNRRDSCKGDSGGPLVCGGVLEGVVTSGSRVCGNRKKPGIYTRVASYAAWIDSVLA
Experimental: Human factor D (purified from human serum, Complement Technology, Inc.) at 80 nM final concentration is incubated with test compound at various concentrations for 5 minutes at room temperature in 50 mM Tris, 1M NaCl, pH 7.5. A synthetic substrate Z-L-Lys-SBz1 and DTNB (Ellman's reagent) are added to final concentrations of 100 μM each. The increase in color is recorded at OD405 nm in a microplate in kinetic mode over 30 minutes with 30 second time points in a spectrofluorimeter. IC50 values are calculated by non-linear regression from the percentage of inhibition of complement factor D activity as a function of test compound concentration.

`CC(=O)c1cn(CC(=O)N2C[C@H](F)C[C@H]2C(=O)NCc2cccc(Cl)c2F)c2cc(N(CC(=O)N3C[C@H](F)C[C@H]3C(=O)NCc3cccc(Cl)c3F)S(C)(=O)=O)ccc12` [Compound 1, (2S,4R)-1-(2-(N-(3-acetyl-1-(2-((2S,4R)-2-(3-chloro-2-fluorobenzyl-carbamoyl)-4-fluoropyrrolidin-1-yl)-2-oxoethyl)-1H-indol-6-yl)methylsulfonamido)acetyl)-N-(3-chloro-2-fluorobenzyl)-4-fluoropyrrolidine-2-carboxamide] came in with an IC50 of 1000 to 10000 nM.

With `CC(=O)c1cn(CC(=O)N2C[C@H](F)C[C@H]2C(=O)NCc2cccc(Cl)c2F)c2cc(NS(=O)(=O)C(F)(F)F)ccc12` [Compound 2, (2S,4R)-1-(2-(3-acetyl-6-(trifluoromethylsulfon-amido)-1H-indol-1-yl)acetyl)-N-(3-chloro-2-fluorobenzyl)-4-fluoropyrrolidine-2-carboxamide], the half-inhibitory concentration (IC50) under setting [1] is less than 1000 nM.

With `CC(=O)c1cn(CC(=O)N2C[C@H](F)C[C@H]2C(=O)Nc2cccc(-c3ccccc3Cl)c2F)c2ccc(Nc3cncnc3)cc12` [Compound 3, (2S,4R)-1-(2-(3-acetyl-5-(pyrimidin-5-ylamino)-1H-indol-1-yl)acetyl)-N-(2′-chloro-2-fluorobiphenyl-3-yl)-4-fluoropyrrolidine-2-carboxamide], the IC50 under setting [1] was less than 1000 nM.

Regarding `CC(=O)c1cn(CC(=O)N2C[C@H](F)C[C@H]2C(=O)Nc2cccc(Br)n2)c2ccc(Nc3cncnc3)cc12` [Compound 4, (2S,4R)-1-(2-(3-acetyl-5-(pyrimidin-5-ylamino)-1H-indol-1-yl)acetyl)-N-(6-bromopyridin-2-yl)-4-fluoropyrrolidine-2-carboxamide], the IC50 under setting [1] is less than 1000 nM.

On to `CC(=O)c1cn(CC(=O)N2C[C@H](F)C[C@H]2C(=O)Nc2cccc(Cl)n2)c2ccc(Nc3cncnc3)cc12` [Compound 6, (2S,4R)-1-(2-(3-acetyl-5-(pyrimidin-5-ylamino)-1H-indol-1-yl)acetyl)-N-(6-chloropyridin-2-yl)-4-fluoropyrrolidine-2-carboxamide], for which the IC50 under setting [1] was less than 1000 nM.

As to `CC(=O)c1cn(CC(=O)N2C[C@H](F)C[C@H]2C(=O)N[C@H](CO)c2cccc(Cl)c2F)c2ccc(Nc3cncnc3)cc12` [Compound 7, (2S,4R)-1-(2-(3-acetyl-5-(pyrimidin-5-ylamino)-1H-indol-1-yl)acetyl)-N-((S)-1-(3-chloro-2-fluorophenyl)-2-hydroxyethyl)-4-fluoropyrrolidine-2-carboxamide], the IC50 under setting [1] is less than 1000 nM.

For the compound `CC(=O)c1cn(CC(=O)N2C[C@H](F)C[C@H]2C(=O)N[C@@H](CO)c2cccc(Cl)c2F)c2ccc(Nc3cncnc3)cc12` [Compound 8, (2S,4R)-1-(2-(3-acetyl-5-(pyrimidin-5-ylamino)-1H-indol-1-yl)acetyl)-N-((R)-1-(3-chloro-2-fluorophenyl)-2-hydroxyethyl)-4-fluoropyrrolidine-2-carboxamide], the IC50 under setting [1] is less than 1000 nM.

As to `NC(=O)c1nn(CC(=O)N2C[C@H](F)C[C@H]2C(=O)Nc2cccc(-c3ccccc3Cl)c2F)c2ccc(Nc3cccnn3)cc12` [Compound 9, 1-(2-((2S,4R)-2-(2′-chloro-2-fluorobiphenyl-3-ylcarbamoyl)-4-fluoropyrrolidin-1-yl)-2-oxoethyl)-5-(pyridazin-3-ylamino)-1H-indazole-3-carboxamide], the IC50 under setting [1] is less than 1000 nM.

Consider `NC(=O)c1nn(CC(=O)N2C[C@H](F)C[C@H]2C(=O)Nc2cccc(-c3ccccc3Cl)c2F)c2ccc(Nc3cncnc3)cc12` [Compound 10, 1-(2-((2S,4R)-2-(2′-chloro-2-fluorobiphenyl-3-ylcarbamoyl)-4-fluoropyrrolidin-1-yl)-2-oxoethyl)-5-(pyrimidin-5-ylamino)-1H-indazole-3-carboxamide], for which the IC50 under setting [1] was less than 1000 nM.

In the case of `NC(=O)c1nn(CC(=O)N2C[C@H](F)C[C@H]2C(=O)Nc2cccc(Cl)n2)c2ccc(Nc3cccnn3)cc12` [Compound 11, 1-(2-((2S,4R)-2-(6-chloropyridin-2-ylcarbamoyl)-4-fluoropyrrolidin-1-yl)-2-oxoethyl)-5-(pyridazin-3-ylamino)-1H-indazole-3-carboxamide], the IC50 under setting [1] was less than 1000 nM.

In the case of `NC(=O)c1nn(CC(=O)N2C[C@H](F)C[C@H]2C(=O)Nc2cccc(Cl)n2)c2ccc(Nc3cncnc3)cc12` [Compound 12, 1-(2-((2S,4R)-2-(6-chloropyridin-2-ylcarbamoyl)-4-fluoropyrrolidin-1-yl)-2-oxoethyl)-5-(pyrimidin-5-ylamino)-1H-indazole-3-carboxamide], the IC50 under setting [1] was less than 1000 nM.

As for `N#Cc1cnc(Nc2ccc3c(c2)c(C(N)=O)nn3CC(=O)N2C[C@H](F)C[C@H]2C(=O)Nc2cccc(-c3ccccc3Cl)c2F)nc1` [Compound 13, 1-(2-((2S,4R)-2-(2′-chloro-2-fluorobiphenyl-3-ylcarbamoyl)-4-fluoropyrrolidin-1-yl)-2-oxoethyl)-5-(5-cyanopyrimidin-2-ylamino)-1H-indazole-3-carboxamide], under setting [1], the IC50 was less than 1000 nM.

As to `NC(=O)c1nn(CC(=O)N2C[C@H](F)C[C@H]2C(=O)Nc2cccc(-c3ccccc3Cl)c2F)c2ccc(Nc3cnc(C(F)(F)F)nc3)cc12` [Compound 14, 1-(2-((2S,4R)-2-(2′-chloro-2-fluorobiphenyl-3-ylcarbamoyl)-4-fluoropyrrolidin-1-yl)-2-oxoethyl)-5-(2-(trifluoromethyl)pyrimidin-5-ylamino)-1H-indazole-3-carboxamide], the IC50 under setting [1] is less than 1000 nM.

Take `CC(=O)c1cn(CC(=O)N2C[C@H](F)C[C@H]2C(=O)NCc2nc3ccccc3s2)c2ccc(Nc3cncnc3)cc12` [Compound 16, (2S,4R)-1-(2-(3-acetyl-5-(pyrimidin-5-ylamino)-1H-indol-yl)acetyl)-N-(benzo[d]thiazol-2-ylmethyl)-4-fluoropyrrolidine-2-carboxamide]: the IC50 was in the range of 1000 to 10000 nM.

With `CC(=O)c1cn(CC(=O)N2C[C@H](F)C[C@H]2C(=O)NCc2ccccn2)c2ccc(Nc3cncnc3)cc12` [Compound 17, (2S,4R)-1-(2-(3-acetyl-5-(pyrimidin-5-ylamino)-1H-indol-1-yl)acetyl)-4-fluoro-N-(pyridin-2-ylmethyl)pyrrolidine-2-carboxamide], the IC50 under setting [1] is less than 1000 nM.

As for `CC(=O)c1cn(CC(=O)N2C[C@H](F)C[C@H]2C(=O)NCc2cc(F)cc(Cl)c2)c2ccc(Nc3cncnc3)cc12` [Compound 18, (2S,4R)-1-(2-(3-acetyl-5-(pyrimidin-5-ylamino)-1H-indol-1-yl)acetyl)-N-(3-chloro-5-fluorobenzyl)-4-fluoropyrrolidine-2-carboxamide], under setting [1], the concentration for half-maximal inhibition (IC50) was less than 1000 nM.

Turning to `CC(=O)c1cn(CC(=O)N2C[C@H](F)C[C@H]2C(=O)NCc2cccc(Cl)c2)c2ccc(Nc3cncnc3)cc12` [Compound 19, (2S,4R)-1-(2-(3-acetyl-5-(pyrimidin-5-ylamino)-1H-indol-1-yl)acetyl)-N-(3-chlorobenzyl)-4-fluoropyrrolidine-2-carboxamide], the IC50 under setting [1] was less than 1000 nM.

Take `CNC(=O)[C@@H]1C[C@@H](F)CN1C(=O)Cn1cc(C(C)=O)c2cc(Nc3cncnc3)ccc21` [Compound 20, (2S,4R)-1-(2-(3-acetyl-5-(pyrimidin-5-ylamino)-1H-indol-1-yl)acetyl)-4-fluoro-N-methylpyrrolidine-2-carboxamide]: the IC50 fell in the range of 1000 to 10000 nM.

As to `CC(=O)c1cn(CC(=O)N2C[C@H](F)C[C@H]2C(=O)Nc2cncc(Br)c2)c2ccc(Nc3cncnc3)cc12` [Compound 21, (2S,4R)-1-(2-(3-acetyl-5-(pyrimidin-5-ylamino)-1H-indol-1-yl)acetyl)-N-(5-bromopyridin-3-yl)-4-fluoropyrrolidine-2-carboxamide], under setting [1], the IC50 was less than 1000 nM.

As for `CC(=O)c1cn(CC(=O)N2C[C@H](F)C[C@H]2C(=O)Nc2cncc(Cl)c2)c2ccc(Nc3cncnc3)cc12` [Compound 22, (2S,4R)-1-(2-(3-acetyl-5-(pyrimidin-5-ylamino)-1H-indol-1-yl)acetyl)-N-(5-chloropyridin-3-yl)-4-fluoropyrrolidine-2-carboxamide], under setting [1], the IC50 was less than 1000 nM.

For `CCN1Cc2ccc(NC(=O)[C@@H]3C[C@@H](F)CN3C(=O)Cn3cc(C(C)=O)c4cc(Nc5cncnc5)ccc43)cc2C1=O` [Compound 23, (2S,4R)-1-(2-(3-acetyl-5-(pyrimidin-5-ylamino)-1H-indol-1-yl)acetyl)-N-(2-ethyl-3-oxoisoindolin-5-yl)-4-fluoropyrrolidine-2-carboxamide], under setting [1], the IC50 was less than 1000 nM.

Consider `CC(=O)c1cn(CC(=O)N2C[C@H](F)C[C@H]2C(=O)Nc2cccc3c2OC(C)(C)C3)c2ccc(Nc3cncnc3)cc12` [Compound 24, (2S,4R)-1-(2-(3-acetyl-5-(pyrimidin-5-ylamino)-1H-indol-1-yl)acetyl)-N-(2,2-dimethyl-2,3-dihydrobenzofuran-7-yl)-4-fluoropyrrolidine-2-carboxamide], for which the IC50 under setting [1] was less than 1000 nM.

As to `CC(=O)c1cn(CC(=O)N2C[C@H](F)C[C@H]2C(=O)Nc2ccc3cn[nH]c3c2)c2ccc(Nc3cncnc3)cc12` [Compound 25, (2S,4R)-1-(2-(3-acetyl-5-(pyrimidin-5-ylamino)-1H-indol-1-yl)acetyl)-4-fluoro-N-(1H-indazol-6-yl)pyrrolidine-2-carboxamide], the IC50 under setting [1] was less than 1000 nM.

In the case of `CC(=O)c1cn(CC(=O)N2C[C@H](F)C[C@H]2C(=O)Nc2ccc(F)c(-c3nnc4n3CCCCC4)c2)c2ccc(Nc3cncnc3)cc12` [Compound 26, (2S,4R)-1-(2-(3-acetyl-5-(pyrimidin-5-ylamino)-1H-indol-1-yl)acetyl)-4-fluoro-N-(4-fluoro-3-(6,7,8,9-tetrahydro-5H-[1,2,4]triazolo[4,3-a]azepin-3-yl)phenyl)pyrrolidine-2-carboxamide], the IC50 under setting [1] was less than 1000 nM.

For the compound `CC(=O)c1cn(CC(=O)N2C[C@H](F)C[C@H]2C(=O)NC2CCCc3nc(-c4ccc(F)cc4)sc32)c2ccc(Nc3cncnc3)cc12` (stereo partly drawn) [Compound 28, (2S,4R)-1-(2-(3-acetyl-5-(pyrimidin-5-ylamino)-1H-indol-1-yl)acetyl)-4-fluoro-N-(2-(4-fluorophenyl)-4,5,6,7-tetrahydrobenzo[d]thiazol-7-yl)pyrrolidine-2-carboxamide], under setting [1], the IC50 is greater than 10000 nM.
